Measurements published in patent publication US20080268024A1, “Compositions for Oral and/or Topical Administration” (priority 2004, published 2008).

How the values were obtained:
Bifidobacterium = test: Stimulation of growth: enumeration of Bifidobacterium in vitro in human fecal homogenate culture; type: cell-based, Bifidobacterium spp; details: 1% test substance or mixture, human fecal homogenate in diluted WC broth, incubated up to 24 hours, control 1.0 × 10^6
Protocol: (§1) The stimulation of growth of micro-organisms has been studied by enumerating bifidobacterium and lactobacilli in vitro in the presence of various test substances:
(§2) Aliquots (1 mL) of human fecal homogenates (10 g per 100 mL diluent) were added to diluted WC broth (diluted 50:50 with 0.05M phosphate buffer) to which were added the test mixtures and a lactobacillus or bifidobacterium strain. For each of the combinations, parallel tubes were prepared with one set being inoculated with Bifidobacterium spp or Lactobacillus spp. All mixtures were then incubated for up to 24 hours and bacterial numbers determined. The results are presented in Tables 1 and 2 (amount of extract calculated on active content): […]

Lactobacterium = test: Stimulation of growth: enumeration of lactobacilli in vitro in human fecal homogenate culture; type: cell-based, Lactobacillus spp; details: 1% test substance or mixture, human fecal homogenate in diluted WC broth, incubated up to 24 hours, control 2.8 × 10^5
Protocol: as §1, §2

| Compound | Bacterial numbers CFU/ml (Bifidobacterium) | Bacterial numbers CFU/ml (Lactobacterium) |
| --- | --- | --- |
| Lactolin [C3] | 1.6 × × 10^7 CFU/ml | 1.5 × × 10^6 CFU/ml |
| OC[C@H]1O[C@@H](O[C@H]2[C@H](O)[C@@H](O)[C@@H](O[C@]3(CO)O[C@H](CO)[C@@H](O)[C@@H]3O)O[C@@H]2CO)[C@H](O)[C@@H](O)[C@H]1O [C2, Lactosucrose] | 1.1 × × 10^7 CFU/ml | 1.1 × × 10^6 CFU/ml |
